Experimental data reported in ChEMBL document CHEMBL1127973, “A comparative molecular field analysis derived model of the binding of taxol analogues to microtubules” (Bioorg Med Chem Lett, 1994).

target: Tubulin (Homo sapiens) (UniProt P68371+Q9H4B7+P0DPH7+P68366+Q13509+Q71U36+P04350+Q3ZCM7+P07437+P68363+Q9BQE3+Q6PEY2+Q13885+Q9BVA1+Q9BUF5); assay: Binding affinity to microtubules, activity expressed as ID50 of compound/ID50 of paclitaxel; assay type: protein-complex assay

| ID50 ratio | Structure (SMILES) |
| --- | --- |
| 2 | CC(=O)O[C@H]1C(=O)[C@]2(C)[C@@H](OC(C)=O)C[C@H]3OC[C@@]3(OC(C)=O)[C@H]2[C@H](OC(=O)c2ccccc2)[C@]2(O)C[C@H](OC(=O)[C@H](O)[C@@H](NC(=O)c3ccccc3)c3ccccc3)C(C)=C1C2(C)C |
| 0.9 | CC(=O)O[C@H]1C(=O)[C@@]2(C)[C@H]([C@H](OC(=O)c3ccccc3)[C@]3(O)C[C@H](OC(=O)[C@H](O)[C@@H](NC(=O)c4ccccc4)c4ccco4)C(C)=C1C3(C)C)[C@]1(OC(C)=O)CO[C@@H]1C[C@@H]2O |
| 0.4 | CC(=O)O[C@H]1C(=O)[C@@]2(C)[C@H]([C@H](OC(=O)c3ccccc3)[C@]3(O)C[C@H](OC(=O)[C@H](O)[C@@H](NC(=O)c4ccoc4)c4ccccc4)C(C)=C1C3(C)C)[C@]1(OC(C)=O)CO[C@@H]1C[C@@H]2O |
| 21.2 | CC(=O)O[C@H]1C(=O)[C@@]2(C)[C@H]([C@H](OC(=O)c3ccccc3)[C@]3(O)C[C@H](OC(=O)C[C@H](NC(=O)c4ccccc4)c4ccccc4)C(C)=C1C3(C)C)[C@]1(OC(C)=O)CO[C@@H]1C[C@@H]2O |
| 13.2 | CC(=O)O[C@H]1C(=O)[C@@]2(C)[C@H]([C@H](OC(=O)c3ccccc3)[C@]3(O)C[C@H](OC(=O)[C@H](O)Cc4ccccc4)C(C)=C1C3(C)C)[C@]1(OC(C)=O)CO[C@@H]1C[C@@H]2O |
| 4.5 | CC(=O)O[C@H]1C(=O)[C@@]2(C)[C@H]([C@H](OC(=O)c3ccccc3)[C@]3(O)C[C@H](OC(=O)[C@@H](O)[C@H](NC(=O)c4ccccc4)c4ccccc4)C(C)=C1C3(C)C)[C@]1(OC(C)=O)CO[C@@H]1C[C@@H]2O |
| 4.6 | CC(=O)O[C@H]1C(=O)[C@@]2(C)[C@H]([C@H](OC(=O)c3ccccc3)[C@]3(O)C[C@H](OC(=O)[C@H](O)[C@@H](NC(=O)c4c(F)c(F)c(N=[N+]=[N-])c(F)c4F)c4ccccc4)C(C)=C1C3(C)C)[C@]1(OC(C)=O)CO[C@@H]1C[C@@H]2O |
| 0.4 | CCCCCC(=O)N[C@@H](c1ccccc1)[C@@H](O)C(=O)O[C@H]1C[C@@]2(O)[C@@H](OC(=O)c3ccccc3)[C@@H]3[C@]4(OC(C)=O)CO[C@@H]4C[C@H](O)[C@@]3(C)C(=O)[C@H](OC(C)=O)C(=C1C)C2(C)C |
| 0.9 | CC(=O)O[C@H]1C(=O)[C@@]2(C)[C@H]([C@H](OC(=O)c3ccccc3)[C@]3(O)C[C@H](OC(=O)[C@H](O)[C@@H](NC(=O)c4ccccc4)c4ccoc4)C(C)=C1C3(C)C)[C@]1(OC(C)=O)CO[C@@H]1C[C@@H]2O |
| 1.9 | CC(=O)O[C@H]1C(=O)[C@@]2(C)[C@H]([C@H](OC(=O)c3ccccc3)[C@]3(O)C[C@H](OC(=O)[C@H](O)[C@@H](NC(=O)c4ccccc4C)c4ccccc4)C(C)=C1C3(C)C)[C@]1(OC(C)=O)CO[C@@H]1C[C@@H]2O |
| 0.4 | CC(=O)O[C@H]1C(=O)[C@@]2(C)[C@H]([C@H](OC(=O)c3ccccc3)[C@]3(O)C[C@H](OC(=O)[C@H](O)[C@@H](NC(=O)c4ccccc4)c4ccncc4)C(C)=C1C3(C)C)[C@]1(OC(C)=O)CO[C@@H]1C[C@@H]2O |
| 0.8 | CC(=O)O[C@H]1C(=O)[C@@]2(C)[C@H]([C@H](OC(=O)c3ccccc3)[C@]3(O)C[C@H](OC(=O)[C@H](O)[C@@H](NC(=O)c4ccco4)c4ccccc4)C(C)=C1C3(C)C)[C@]1(OC(C)=O)CO[C@@H]1C[C@@H]2O |
| 2.6 | CC(=O)O[C@H]1C(=O)[C@@]2(C)[C@H]([C@H](OC(=O)c3ccccc3)[C@]3(O)C[C@H](OC(=O)[C@H](O)[C@@H](NC(=O)C(C)(C)C)c4ccccc4)C(C)=C1C3(C)C)[C@]1(OC(C)=O)CO[C@@H]1C[C@@H]2O |
| 7.1 | CC(=O)O[C@H]1C(=O)[C@@]2(C)[C@H]([C@H](OC(=O)c3ccccc3)[C@]3(O)C[C@H](OC(=O)[C@H](O)[C@@H](NC(=O)c4ccccc4)c4ccc(Cl)c(Cl)c4)C(C)=C1C3(C)C)[C@]1(OC(C)=O)CO[C@@H]1C[C@@H]2O |
| 3.5 | CC(=O)O[C@H]1C(=O)[C@@]2(C)[C@H]([C@H](OC(=O)c3ccccc3)[C@]3(O)C[C@H](OC(=O)[C@H](O)[C@@H](NC(=O)/C(C)=N/O)c4ccccc4)C(C)=C1C3(C)C)[C@]1(OC(C)=O)CO[C@@H]1C[C@@H]2O |
| 5.6 | CC(=O)O[C@H]1C(=O)[C@@]2(C)[C@H]([C@H](OC(=O)c3ccccc3)[C@]3(O)C[C@H](OC(=O)[C@H](O)CNC(=O)c4ccccc4)C(C)=C1C3(C)C)[C@]1(OC(C)=O)CO[C@@H]1C[C@@H]2O |
| 0.5 | CC(=O)O[C@H]1C(=O)[C@@]2(C)[C@H]([C@H](OC(=O)c3ccccc3)[C@]3(O)C[C@H](OC(=O)[C@H](O)[C@@H](NC(=O)c4ccccc4)c4cccnc4)C(C)=C1C3(C)C)[C@]1(OC(C)=O)CO[C@@H]1C[C@@H]2O |
| 1.4 | CC(=O)O[C@H]1C(=O)[C@@]2(C)[C@H]([C@H](OC(=O)c3ccccc3)[C@]3(O)C[C@H](OC(=O)[C@H](O)[C@@H](NC(=O)c4cccc(N(C)C)c4)c4ccccc4)C(C)=C1C3(C)C)[C@]1(OC(C)=O)CO[C@@H]1C[C@@H]2O |
| > 27 | CC(=O)O[C@@]12CO[C@@H]1C[C@H](O)[C@@]1(C)C(=O)[C@H](O)C3=C(C)[C@@H](OC(=O)C[C@@H](O)[C@@H](NC(=O)c4ccccc4)c4ccccc4)C[C@@](O)([C@@H](OC(=O)c4ccccc4)[C@H]21)C3(C)C |
| 2 | CC(=O)O[C@H]1C(=O)[C@@]2(C)[C@H]([C@H](OC(=O)c3ccccc3)[C@]3(O)C[C@H](OC(=O)[C@H](O)[C@@H](NC(=O)c4ccc([N+](=O)[O-])cc4)c4ccccc4)C(C)=C1C3(C)C)[C@]1(OC(C)=O)CO[C@@H]1C[C@@H]2O |

More lines, now with the values behind:

| Structure (SMILES) | ID50 ratio |
| --- | --- |
| CC(=O)O[C@@]12CO[C@@H]1C[C@H](O)[C@@]1(C)C(=O)[C@H](O)C3=C(C)[C@@H](OC(=O)C[C@H](NC(=O)OC(C)(C)C)c4ccccc4)C[C@@](O)([C@@H](OC(=O)c4ccccc4)[C@H]21)C3(C)C | 2.3 |
| CC(=O)O[C@H]1C(=O)[C@]2(C)[C@@H](OC(=O)c3c(F)c(F)c(N=[N+]=[N-])c(F)c3F)C[C@H]3OC[C@@]3(OC(C)=O)[C@H]2[C@H](OC(=O)c2ccccc2)[C@]2(O)C[C@H](OC(=O)[C@H](O)[C@@H](NC(=O)c3ccccc3)c3ccccc3)C(C)=C1C2(C)C | > 22.4 |
| CC(=O)O[C@@]12CO[C@@H]1C[C@H](O)[C@@]1(C)C(=O)[C@H](O)C3=C(C)[C@@H](OC(=O)C[C@@H](O)[C@@H](NC(=O)OC(C)(C)C)c4ccccc4)C[C@@](O)([C@@H](OC(=O)c4ccccc4)[C@H]21)C3(C)C | > 27 |
| CC(=O)O[C@@]12CO[C@@H]1C[C@H](OC(=O)CCCC(=O)O)[C@@]1(C)C(=O)[C@H](OC(=O)CCCC(=O)O)C3=C(C)[C@@H](OC(=O)[C@H](O)[C@@H](NC(=O)OC(C)(C)C)c4ccccc4)C[C@@](O)([C@@H](OC(=O)c4ccccc4)[C@H]21)C3(C)C | 2 |
| CC(=O)O[C@@]12CO[C@@H]1C[C@H](O)[C@@]1(C)C(=O)CC3=C(C)[C@@H](OC(=O)[C@H](O)[C@@H](NC(=O)c4ccccc4)c4ccccc4)C[C@@](O)([C@@H](OC(=O)c4ccccc4)[C@H]21)C3(C)C (stereo in doubt; 19) | 106 |
| CC(=O)O[C@H]1C(=O)[C@@]2(C)[C@H]([C@H](OC(=O)c3ccccc3)[C@]3(O)C[C@H](OC(=O)[C@H](O)[C@@H](NC(=O)/C(C)=N/NC(=O)OC(C)(C)C)c4ccccc4)C(C)=C1C3(C)C)[C@]1(OC(C)=O)CO[C@@H]1C[C@@H]2O | 14.1 |
| CC(=O)O[C@H]1C(=O)[C@@]2(C)[C@H]([C@H](OC(=O)c3ccccc3)[C@]3(O)C[C@H](OC(=O)[C@H](O)[C@@H](NC(=O)c4ccc(F)cc4)c4ccccc4)C(C)=C1C3(C)C)[C@]1(OC(C)=O)CO[C@@H]1C[C@@H]2O | 1.2 |
| CC(=O)O[C@H]1C(=O)[C@@]2(C)[C@H]([C@H](OC(=O)c3ccccc3)[C@]3(O)C[C@H](OC(=O)[C@H](O)[C@@H](NC(=O)OCc4ccccc4)c4ccccc4)C(C)=C1C3(C)C)[C@]1(OC(C)=O)CO[C@@H]1C[C@@H]2O | 3.3 |
| CC(=O)O[C@H]1C(=O)[C@@]2(C)[C@H]([C@H](OC(=O)c3ccccc3)[C@]3(O)C[C@H](OC(=O)[C@@H](C)O)C(C)=C1C3(C)C)[C@]1(OC(C)=O)CO[C@@H]1C[C@@H]2O | 5.6 |
| CC(=O)O[C@H]1C(=O)[C@@]2(C)[C@H]([C@H](OC(=O)c3ccccc3)[C@]3(O)C[C@H](OC(=O)[C@H](C)O)C(C)=C1C3(C)C)[C@]1(OC(C)=O)CO[C@@H]1C[C@@H]2O | 6.4 |
| CC(=O)O[C@@]12CO[C@@H]1C[C@H](O)[C@@]1(C)C(=O)[C@H](O)C3=C(C)[C@@H](OC(=O)[C@H](O)[C@@H](NC(=O)OC(C)(C)C)c4ccccc4)C[C@@](O)([C@@H](OC(=O)c4ccccc4)[C@H]21)C3(C)C (stereo in doubt; 40) | 0.5 |
| CC(=O)O[C@@]12CO[C@@H]1C[C@H](O)[C@@]1(C)C(=O)CC3=C(C)[C@@H](OC(=O)[C@H](O)[C@@H](NC(=O)c4ccccc4)c4ccccc4)C[C@@](O)([C@@H](OC(=O)c4ccccc4)[C@H]21)C3(C)C (stereo in doubt; 17) | 143 |
| CCC(=O)O[C@H]1C[C@@]2(O)[C@@H](OC(=O)c3ccccc3)[C@@H]3[C@]4(OC(C)=O)CO[C@@H]4C[C@H](O)[C@@]3(C)C(=O)[C@H](OC(C)=O)C(=C1C)C2(C)C | 52 |
| CC(=O)O[C@H]1C(=O)[C@@]2(C)[C@H]([C@H](OC(=O)c3ccccc3)[C@]3(O)C[C@H](OC(=O)[C@H](O)[C@@H](NC(=O)OC(C)(C)C)c4ccco4)C(C)=C1C3(C)C)[C@]1(OC(C)=O)CO[C@@H]1C[C@@H]2O | 1.7 |
| C/C=C(\C)C(=O)N[C@@H](c1ccccc1)[C@@H](O)C(=O)O[C@H]1C[C@@]2(O)[C@@H](OC(=O)c3ccccc3)[C@@H]3[C@]4(OC(C)=O)CO[C@@H]4C[C@H](O)[C@@]3(C)C(=O)[C@H](OC(C)=O)C(=C1C)C2(C)C | 1.5 |
| C/C=C(\C)C(=O)N[C@@H](c1ccccc1)[C@@H](O)C(=O)O[C@H]1C[C@@]2(O)[C@@H](OC(=O)c3ccccc3)[C@@H]3[C@]4(OC(C)=O)CO[C@@H]4C[C@H](O)[C@@]3(C)C(=O)[C@H](O)C(=C1C)C2(C)C | 5 |
| C/C=C(\C)C(=O)N[C@@H](c1ccccc1)[C@@H](O)C(=O)O[C@H]1C[C@@]2(O)[C@@H](OC(=O)c3ccccc3)[C@@H]3[C@]4(OC(C)=O)CO[C@@H]4C[C@H](OC(=O)[C@H](O)[C@@H](O)[C@H](O)CO)[C@@]3(C)C(=O)[C@H](OC(C)=O)C(=C1C)C2(C)C | 0.5 |
